# Test system: participants with CM and moderate to severe symptoms of depression
# Experiment: Same phase 3 study: analysis of participants with chronic migraine and moderate to severe symptoms of depression (PHQ-9 ≥10)
# Type: in vivo, human
# Parameters: MSQ v2.1 RFR, Change from baseline, mean / MSQ v2.1 RFP, Change from baseline, mean / MSQ v2.1 EF, Change from baseline, mean / MSQ v2.1 RFR, MMRM, LS mean change / MSQ v2.1 RFP, MMRM, LS mean change / MSQ v2.1 EF, MMRM, LS mean change / HIT-6, Change from baseline, mean / HIT-6, MMRM, LS mean change: scale not given here
# Details: 60 mg QD
# Excerpt: Depression is a common comorbidity in people with migraine and is a risk factor for transformation of EM to CM. Depressive symptoms predict increases in headache-related disability and poor health-related quality of life (HRQoL) in people with migraine. Thus, trial data analysis was used to evaluate the effect of atogepant in participants with CM and baseline symptoms of moderate to severe depression. Specifically, analysis of trial data evaluated the impact of atogepant on change in monthly migraine days, ≥50% and ≥75% responder rates, change in MSQ v2.1 domain scores, and PGIC in participants with CM and moderate to severe depression symptomology. PHQ-9 is a validated, screening and diagnostic tool designed to improve the recognition rate of depression and facilitates diagnosis and treatment. A cut-off score of ≥10 was used to identify participants with moderate or severe depressive symptoms, to determine eligibility and as a continuous outcome to measure changes in depression. As disclosed hereinabove, the MSQ v2.1 is a 14-item measure of health-related quality of life evaluating impacts attributed to migraine over the past 4 weeks and comprises three domains: Role Function-Restrictive (RFR), Role Function-Preventive (RFP), and Emotional Function (EF). PGIC is a single item used to measure the subject's impression of overall change in migraine since the first dose of study intervention. Findings for the atogepant 60 mg QD dose are presented herein. […] For the endpoint change from baseline in monthly migraine days and each MSQ v2.1 domain score, the comparison between treatment groups was analyzed using a restricted maximum likelihood-based mixed model for repeated measures (MMRM). Logistic regression models were used to analyze PGIC responder at week 12 and ≥50% or 75% responder rates across 12-week double-blind treatment period. ANCOVA model was used to analyze change from baseline in PHQ-9 score at week 12.
# Analysis of trial data evaluated the impact of atogepant on headache day reduction, moderate/severe headache days, acute medication use day reduction, impacts of headache and migraine as evaluated by the HIT-6 and AIM-D, and symptoms of moderate to severe depression as measured by PHQ-9. A cut-off score of ≥10 was used to identify participants with moderate or severe depressive symptoms, to determine eligibility and as a continuous outcome to measure changes in depressive symptoms. Findings for the atogepant 60 mg QD dose are presented here. Similar results for the 30 BID dose (excluded for simplicity). For endpoints other than PHQ-9, the comparison between treatment groups were analyzed using a restricted maximum likelihood-based mixed model for repeated measures (MMRM). ANCOVA model was used to analyze PHQ-9 related endpoints.
# [1] = across the 12-week treatment period, mITT, PHQ-9 ≥10 subgroup (n = 109)
# [2] = mITT, PHQ-9 ≥10 subgroup (n = 109)
# [3] = mITT, PHQ-9 ≥10 subgroup (n = 109), 12-week treatment period
# [4] = week 12, mITT, PHQ-9 ≥10 subgroup (n = 109)
compound,measurement,setting,value
"C[C@@H]1[C@H](c2c(F)ccc(F)c2F)C[C@H](NC(=O)c2cnc3c(c2)C[C@@]2(C3)C(=O)Nc3ncccc32)C(=O)N1CC(F)(F)F [Atogepant, (S)—N—((3S,5S,6R)-6-methyl-2-oxo-1-(2,2,2-trifluoroethyl)-5-(2,3,6-trifluorophenyl)piperidin-3-yl)-2′-oxo-1′,2′,5,7-tetrahydrospiro[cyclopenta[b]pyridine-6,3′-pyrrolo[2,3-b]pyridine]-3-carboxamide]","AIM-D PDA, Change from baseline, mean",[1],−16.09
same,"AIM-D PDA, LSMD vs placebo",[1],−5.91
same,"AIM-D PDA, MMRM, LS mean change",[1],−13.50
same,"AIM-D PI, Change from baseline, mean",[1],−13.84
same,"AIM-D PI, LSMD vs placebo",[1],−4.63
same,"AIM-D PI, MMRM, LS mean change",[1],−11.68
same,"AIM-D PDA, Months 1-3, mean",[2],22.29
same,"AIM-D PI, Months 1-3, mean",[2],20.07
same,"Monthly Acute Medication Use Days, Post-baseline (Month 1-3), mean",[2],9.51
same,"Monthly Headache Days, Post-baseline (Month 1-3), mean",[2],15.24
same,"Monthly Migraine Days, Post-baseline (Month 1-3), mean",[2],12.90
same,"Monthly Moderate/Severe Headache Days, Post-baseline (Month 1-3), mean",[2],10.22
same,"PHQ-9, Week 12, mean",[2],8.81
same,"≥50% Responders, Odds ratio vs placebo",[2],3.70
same,"≥75% Responders, Odds ratio vs placebo",[2],13.64
same,"Monthly Acute Medication Use Days, Change from baseline, mean",[3],−7.52
same,"Monthly Acute Medication Use Days, LSMD vs placebo",[3],−3.53
same,"Monthly Acute Medication Use Days, MMRM, LS mean change",[3],−6.57
same,"Monthly Headache Days, Change from baseline, mean",[3],−6.94
same,"Monthly Headache Days, LSMD vs placebo",[3],−2.86
same,"Monthly Headache Days, MMRM, LS mean change",[3],−6.52
same,"Monthly Migraine Days, Change from baseline, mean",[3],−7.23
same,"Monthly Migraine Days, LSMD vs placebo",[3],−3.04
same,"Monthly Migraine Days, MMRM, LS mean change",[3],−6.71
same,"Monthly Moderate/Severe Headache Days, Change from baseline, mean",[3],−7.34
same,"Monthly Moderate/Severe Headache Days, LSMD vs placebo",[3],−2.68
same,"Monthly Moderate/Severe Headache Days, MMRM, LS mean change",[3],−6.77
same,"≥50% Responders, Odds ratio vs placebo","mITT, PHQ-9 ≥10 subgroup (n = 109), listed as atogepant",3.7
same,"PGIC much better or very much better, OR vs placebo","week 12, PHQ-9 ≥10 subgroup",2.52
same,"HIT-6, Change from baseline, mean",[4],−8.73
same,"HIT-6, LSMD vs placebo",[4],−3.18
same,"HIT-6, MMRM, LS mean change",[4],−8.37
same,"HIT-6, Post-baseline, mean",[4],57.68
same,"MSQ v2.1 EF, Change from baseline, mean",[4],30.17
same,"MSQ v2.1 EF, LSMD vs placebo",[4],9.24
same,"MSQ v2.1 EF, MMRM, LS mean change",[4],28.19
same,"MSQ v2.1 EF, Post-baseline, mean",[4],70.79
same,"MSQ v2.1 RFP, Change from baseline, mean",[4],24.95
same,"MSQ v2.1 RFP, LSMD vs placebo",[4],8.89
same,"MSQ v2.1 RFP, MMRM, LS mean change",[4],22.91
same,"MSQ v2.1 RFP, Post-baseline, mean",[4],73.71
same,"MSQ v2.1 RFR, Change from baseline, mean",[4],28.04
same,"MSQ v2.1 RFR, LSMD vs placebo",[4],8.77
same,"MSQ v2.1 RFR, MMRM, LS mean change",[4],25.56
same,"MSQ v2.1 RFR, Post-baseline, mean",[4],61.53
same,"PHQ-9, ANCOVA, LS mean change",[4],−5.11
same,"PHQ-9, Change from baseline, mean",[4],−5.61
same,"PHQ-9, LSMD vs placebo",[4],−1.38
